Tested on: UBE3A
Assay: UBE3A steady state RNA (qRT-PCR) in GABAergic iPSC-derived neurons
Format: cell-based, human
Conditions: for Difference, UBE3A RNA level: ASOs 10 μM; for effect on UBE3A RNA levels (in words): treated 29 DIV, RNA 35 DIV, 10-point dose curve; for increase of UBE3A RNA levels: 10 μM
Description: Human-specific ASOs were then designed to target this region, which included four ASOs targeting non-polymorphic regions in human and regions conserved (100%) with macaque (Rhesus and Cynomolgus) (Table 7 and FIG. 3A). Human induced pluripotent stem cell (iPSC) neural precursor cells were differentiated into GABAergic neurons for 14 DIV and then treated with a control ASO [ASO-C (10 μM, n=3)], Topotecan [Topo (1 μM, n=2)], and six ASOs targeting UBE3A-AS [ASO-1, ASO-2, ASO-3, ASO-4, ASO-5, and ASO-6 (10 μM, n=3)]. Additionally, an ASO targeting an intronic region downstream of SNORD109B was included (ASO-7). Six days post-treatment (20 DIV), RNA was isolated from the neurons and the steady state RNA levels of UBE3A-AS and UBE3A were estimated relative to the control treatment (FIG. 3B).
The effects of ASO-4 and Topotecan were then examined on the SNORD116, IPW, SNORD115, and SNORD109A RNAs, which are located upstream of the ASO-4 target region (see FIG. 1A).
The potency of ASO-4 was further examined in iPSC-derived neurons at a later time point in differentiation. GABAergic iPSC-derived neurons were treated at 59 DIV with a control ASO [ASO-C, 10 μM (n=3)] and ASO-4 [1 uM, 5 μM, and 10 μM (n=3)], and the steady state RNA levels of UBE3A-AS and UBE3A were measured as described above (FIG. 4G). Unlike neurons treated with ASO-4 at an earlier time point, the RNA levels of UBE3A and UBE3A-AS were highly inversely correlated (FIGS. 4H and 4I). For example, the effect of ASO-4 (10 μM) on UBE3A-AS RNA levels was similar between neurons treated at 14 and 59 DIV [20 DIV: UBE3A-AS: ↓87% (95% confidence intervals (CI): 80 to 95%); 65 DIV: ↓81% (95% CI: 74 to 88%)], whereas the effect of ASO-4 on UBE3A RNA levels was substantially larger in neurons treated at 59 DIV [20 DIV: ↑30% (95% CI: 16 to 44%); 65 DIV: ↑86% (95% CI: 59% to 113%)].
The potency of ASO-4 and ASO-6.1 was further examined in iPSC-derived neurons at a later time point in differentiation. GABAergic iPSC-derived neurons were treated at 29 DIV with a 10-point ½ log dose response curve of ASO-4 and ASO-6.1 [1 nM, 3 nM, 10 nM, 30 nM, 100 nM, 300 nM, 1 μM, 3 μM, 10 μM, and 30 μM (n=3)]. At 35 DIV, the IC50 and Emax of each ASO was estimated as described above (FIG. 5C-D and Table 14). The dose response curves of ASO-4 and ASO-6.1 were not similar (Parallelism test: F(3,172)=22.7, p<0.0001).
GABAergic and glutamatergic induced pluripotent stem cell (iPSC) derived neural precursor cells (NRC-100-010-001 and GNC-301-030-001, Cellular Dynamics International, Madison Wis.) were differentiated into neurons according to the manufactures protocol. Briefly, neural precursor cells were thawed and resuspended in chemically defined medium and added to sterile-culture plates coated with poly-D-lysine and laminin. The medium was replaced 24 hr after plating and then one-half of the medium was replaced every 3-5 days afterwards.
For cultured iPSC-derived neurons, RNA isolation and cDNA synthesis were performed using the Cell-to-CT kit (Thermo Fisher Scientific) in a lysate volume of 55 μl.
The steady state RNA levels of target transcripts were measured using TaqMan quantitative reverse-transcription PCR (qRT-PCR) assays. Total reaction volume was 10 uL, including 2 μl of cDNA, 1× Gene Expression Master mix (4369016, Thermo Fisher Scientific, Waltham, Mass.), and 1× TaqMan primer assay (Thermo Fisher Scientific). Cycling conditions were 2 minutes at 50° C., 10 minutes at 95° C., and 40 cycles of 15 seconds at 95° C. and 1 minute at 60° C., with readings taken at the 60° C. step of every cycle. Reactions were run on a BIO-RAD T1000 CFX96 thermocycler (Bio-Rad Laboratories, Hercules Calif.), with internal control (PPIA, Hs99999904_m1, Thermo Fisher Scientific) and target [UBE3A-AS, Hs01372957_m1; SNORD116-11, Hs04275268_gH; SNORD115, Hs04275288_gH; IPW, Hs03455409_s1; SNORD109A/B, AP47WVR (Thermo Fisher Scientific); UBE3A: forward […] (SEQ ID NO:500); reverse: […]

[1] = Topo 1 μM, 14 DIV to 20 DIV, labelled treatment minus ASO-3
[2] = Topo 1 μM, 14 DIV to 20 DIV, labelled treatment minus ASO-5
[3] = Topo 1 μM, 14 DIV to 20 DIV, labelled treatment minus ASO-6
[4] = Topo 1 μM, 14 DIV to 20 DIV, labelled treatment minus ASO-R
[5] = Topo 1 μM, treated 14 DIV, RNA 20 DIV, normalized to ASO-C, labelled treatment minus ASO-C
[6] = 14 DIV to 20 DIV, labelled treatment minus ASO-1
[7] = 14 DIV to 20 DIV, labelled treatment minus Topo (1 μM)

Row | Molecule | Difference, UBE3A RNA level [1] | Difference, UBE3A RNA level [2] | Difference, UBE3A RNA level [3] | Difference, UBE3A RNA level [4] | Difference, UBE3A RNA level [5] | effect on UBE3A RNA levels (in words) | Difference, UBE3A RNA level [6] | Difference, UBE3A RNA level [7] | increase of UBE3A RNA levels (treated 14 DIV, RNA 20 DIV) [%] | increase of UBE3A RNA levels (treated 59 DIV, RNA 65 DIV) [%] | Difference, UBE3A RNA level (14 DIV to 20 DIV, labelled treatment minus ASO-2)
1 | CC[C@@]1(O)C(=O)OCc2c1cc1n(c2=O)Cc2cc3c(CN(C)C)c(O)ccc3nc2-1 [Topotecan, reference compound] | 0.05 | 0.02 | 0.02 | 0.18 | 0.18 | – | – | – | – | – | –
2 | C^O*U^O*G^O*G^O*t*g*t*c*a*a*c*a*a*g*C^O*C^O*A^O*A^O [ASO-6.1] | – | – | – | – | – | increasing RNA levels in dose dependent manner | – | – | – | – | –
3 | G^O*U^O*A^O*C^O*U^O*c*t*t*c*c*t*c*a*g*t*C^O*A^O*U^O*C^O*C^O [ASO-2] | 0.08 | 0.05 | 0.05 | 0.21 | 0.21 | – | 0.03 | 0.03 | – | – | –
4 | U^O*A^O*G^O*A^O*A^O*t*g*g*c*a*c*a*t*c*t*C^O*U^O*U^O*G^O*G^O [ASO-4] | 0.17 | 0.13 | 0.13 | 0.29 | 0.30 | increasing RNA levels in dose dependent manner | 0.11 | 0.11 | 30 | 86 | 0.08

— patent US11198869B2, “Angelman syndrome antisense treatment” (The Texas A&M University System, priority 2017, dated 2021)
